Data from ChEMBL document CHEMBL3580659, “One-pot multicomponent synthesis of indole incorporated thiazolylcoumarins and their antibacterial, anticancer and DNA cleavage studies” (2015).
The source made the active and inactive calls. The rule behind the calls is not given here.

What follows are compounds tested on Bacillus subtilis (assay: Antibacterial activity against Bacillus subtilis assessed as bacterial growth inhibition at 50 ug/ml after 24 hrs by cup-plate agar diffusion method). Settings: read-out: IZ.
Type: functional
In the case of CCn1cc(/C=N/Nc2nc(-c3cc4c(ccc5ccccc54)oc3=O)cs2)c2ccccc21, the zone of inhibition at 50 µg/mL is reported as 15 mm.
In the case of CCn1cc(/C=N/Nc2nc(-c3cc4ccccc4oc3=O)cs2)c2ccccc21, the zone of inhibition at 50 µg/mL is reported as 10 mm.
With CCn1cc(/C=N/Nc2nc(-c3cc4cc(Br)cc(Br)c4oc3=O)cs2)c2ccccc21 the zone of inhibition at 50 µg/mL was 10 mm.
In the case of Cc1[nH]c2ccccc2c1/C=N/Nc1nc(-c2cc3ccccc3oc2=O)cs1, the zone of inhibition at 50 µg/mL is reported as 13 mm.
Cc1[nH]c2ccccc2c1/C=N/Nc1nc(-c2cc3cc(Br)ccc3oc2=O)cs1 gave a zone of inhibition at 50 µg/mL of 10 mm.
With COc1ccc2[nH]cc(/C=N/Nc3nc(-c4cc5ccccc5oc4=O)cs3)c2c1 the zone of inhibition at 50 µg/mL was 13 mm.
Work on CCn1cc(/C=N/Nc2nc(-c3cc4cc(Br)ccc4oc3=O)cs2)c2ccccc21 yielded a zone of inhibition at 50 µg/mL of 15 mm.
O=c1oc2ccc(Cl)cc2cc1-c1csc(N/N=C/c2c[nH]c3ccccc23)n1 gave a zone of inhibition at 50 µg/mL of 13 mm.
For Cc1[nH]c2ccccc2c1/C=N/Nc1nc(-c2cc3cc(Cl)ccc3oc2=O)cs1, the zone of inhibition at 50 µg/mL was 10 mm.
Work on O=c1oc2ccc3ccccc3c2cc1-c1csc(N/N=C/c2c[nH]c3ccccc23)n1 yielded a zone of inhibition at 50 µg/mL of 15 mm.
COc1ccc2[nH]cc(/C=N/Nc3nc(-c4cc5cc(Br)cc(Br)c5oc4=O)cs3)c2c1 gave a zone of inhibition at 50 µg/mL of 10 mm.
With Cc1[nH]c2ccccc2c1/C=N/Nc1nc(-c2cc3cc(Br)cc(Br)c3oc2=O)cs1 the zone of inhibition at 50 µg/mL was 15 mm.
With O=c1oc2ccc(Br)cc2cc1-c1csc(N/N=C/c2c[nH]c3ccccc23)n1 the zone of inhibition at 50 µg/mL was 15 mm.
O=c1oc2c(Br)cc(Br)cc2cc1-c1csc(N/N=C/c2c[nH]c3ccccc23)n1 was tested, and the zone of inhibition at 50 µg/mL was 10 mm.
COc1ccc2[nH]cc(/C=N/Nc3nc(-c4cc5c(ccc6ccccc65)oc4=O)cs3)c2c1 showed a zone of inhibition at 50 µg/mL of 15 mm.
Compound O=c1oc2ccccc2cc1-c1csc(N/N=C/c2c[nH]c3ccc(Br)cc23)n1 has a zone of inhibition at 50 µg/mL of 15 mm.

Each compound was assayed on Escherichia coli (assay: Antibacterial activity against Escherichia coli assessed as bacterial growth inhibition at 50 ug/ml after 24 hrs by cup-plate agar diffusion method). Settings: read-out: IZ.
Type: functional
In the case of CCn1cc(/C=N/Nc2nc(-c3cc4c(ccc5ccccc54)oc3=O)cs2)c2ccccc21, the zone of inhibition at 50 µg/mL is reported as 12 mm.
Work on CCn1cc(/C=N/Nc2nc(-c3cc4ccccc4oc3=O)cs2)c2ccccc21 yielded a zone of inhibition at 50 µg/mL of 10 mm.
CCn1cc(/C=N/Nc2nc(-c3cc4cc(Br)cc(Br)c4oc3=O)cs2)c2ccccc21 gave a zone of inhibition at 50 µg/mL of 10 mm.
In the case of Cc1[nH]c2ccccc2c1/C=N/Nc1nc(-c2cc3ccccc3oc2=O)cs1, the zone of inhibition at 50 µg/mL is reported as 10 mm.
For Cc1[nH]c2ccccc2c1/C=N/Nc1nc(-c2cc3cc(Br)ccc3oc2=O)cs1, the zone of inhibition at 50 µg/mL was 12 mm.
With COc1ccc2[nH]cc(/C=N/Nc3nc(-c4cc5ccccc5oc4=O)cs3)c2c1 the zone of inhibition at 50 µg/mL was 10 mm.
In the case of CCn1cc(/C=N/Nc2nc(-c3cc4cc(Br)ccc4oc3=O)cs2)c2ccccc21, the zone of inhibition at 50 µg/mL is reported as 15 mm.
O=c1oc2ccc(Cl)cc2cc1-c1csc(N/N=C/c2c[nH]c3ccccc23)n1 showed a zone of inhibition at 50 µg/mL of 15 mm.
In the case of Cc1[nH]c2ccccc2c1/C=N/Nc1nc(-c2cc3cc(Cl)ccc3oc2=O)cs1, the zone of inhibition at 50 µg/mL is reported as 6 mm.
O=c1oc2ccc3ccccc3c2cc1-c1csc(N/N=C/c2c[nH]c3ccccc23)n1 gave a zone of inhibition at 50 µg/mL of 14 mm.
With COc1ccc2[nH]cc(/C=N/Nc3nc(-c4cc5cc(Br)cc(Br)c5oc4=O)cs3)c2c1 the zone of inhibition at 50 µg/mL was 10 mm.
Work on Cc1[nH]c2ccccc2c1/C=N/Nc1nc(-c2cc3cc(Br)cc(Br)c3oc2=O)cs1 yielded a zone of inhibition at 50 µg/mL of 12 mm.
In the case of O=c1oc2ccc(Br)cc2cc1-c1csc(N/N=C/c2c[nH]c3ccccc23)n1, the zone of inhibition at 50 µg/mL is reported as 13 mm.
For O=c1oc2c(Br)cc(Br)cc2cc1-c1csc(N/N=C/c2c[nH]c3ccccc23)n1, the zone of inhibition at 50 µg/mL was 7 mm.
COc1ccc2[nH]cc(/C=N/Nc3nc(-c4cc5c(ccc6ccccc65)oc4=O)cs3)c2c1 showed a zone of inhibition at 50 µg/mL of 12 mm.
O=c1oc2ccccc2cc1-c1csc(N/N=C/c2c[nH]c3ccc(Br)cc23)n1 was tested, and the zone of inhibition at 50 µg/mL was 10 mm.

These compounds were tested on Escherichia coli (assay: Induction of DNA cleavage of Escherichia coli pUC18 plasmid DNA at 50 ug/ml after 2 hrs by agarose gel elctrophoresis method). Settings: not given.
With CCn1cc(/C=N/Nc2nc(-c3cc4cc(Br)cc(Br)c4oc3=O)cs2)c2ccccc21 the Activity was “Active”.
For Cc1[nH]c2ccccc2c1/C=N/Nc1nc(-c2cc3ccccc3oc2=O)cs1, the Activity was “Active”.
With Cc1[nH]c2ccccc2c1/C=N/Nc1nc(-c2cc3cc(Br)ccc3oc2=O)cs1 the Activity was “Active”.
COc1ccc2[nH]cc(/C=N/Nc3nc(-c4cc5ccccc5oc4=O)cs3)c2c1 was tested, and the Activity was “Active”.
In the case of CCn1cc(/C=N/Nc2nc(-c3cc4cc(Br)ccc4oc3=O)cs2)c2ccccc21, the Activity is reported as “Active”.
In the case of O=c1oc2ccc(Cl)cc2cc1-c1csc(N/N=C/c2c[nH]c3ccccc23)n1, the Activity is reported as “Active”.
For Cc1[nH]c2ccccc2c1/C=N/Nc1nc(-c2cc3cc(Cl)ccc3oc2=O)cs1, the Activity was “Active”.
For O=c1oc2ccc3ccccc3c2cc1-c1csc(N/N=C/c2c[nH]c3ccccc23)n1, the Activity was “Active”.
In the case of COc1ccc2[nH]cc(/C=N/Nc3nc(-c4cc5cc(Br)cc(Br)c5oc4=O)cs3)c2c1, the Activity is reported as “Active”.
For Cc1[nH]c2ccccc2c1/C=N/Nc1nc(-c2cc3cc(Br)cc(Br)c3oc2=O)cs1, the Activity was “Active”.
In the case of O=c1oc2ccc(Br)cc2cc1-c1csc(N/N=C/c2c[nH]c3ccccc23)n1, the Activity is reported as “Active”.
O=c1oc2c(Br)cc(Br)cc2cc1-c1csc(N/N=C/c2c[nH]c3ccccc23)n1 was tested, and the Activity was “Active”.
For COc1ccc2[nH]cc(/C=N/Nc3nc(-c4cc5c(ccc6ccccc65)oc4=O)cs3)c2c1, the Activity was “Active”.
With O=c1oc2ccccc2cc1-c1csc(N/N=C/c2c[nH]c3ccc(Br)cc23)n1 the Activity was “Active”.

Each compound was assayed on Escherichia coli (assay: Induction of DNA cleavage of Escherichia coli pUC18 plasmid DNA at 100 ug/ml after 2 hrs by agarose gel elctrophoresis method). Settings: not given.
For CCn1cc(/C=N/Nc2nc(-c3cc4c(ccc5ccccc54)oc3=O)cs2)c2ccccc21, the Activity was “Active”.
For CCn1cc(/C=N/Nc2nc(-c3cc4ccccc4oc3=O)cs2)c2ccccc21, the Activity was “Active”.
